# Key:
# [1] = Example D: two-flask liquid/soil system with chromated copper arsenate, copper
# Protocol: (§1) A system which had two connected 250 ml flasks, one with liquid and soil and the other with a reservoir of liquid, was used. The liquid flowed between the 2 flasks. Samples were taken from the flask without the soil to determine the amount of Cu, As and Cr present in the aqueous phase. The liquid in the flask without soil was sampled periodically and the Cu, Cr and As content measured by Atomic Absorption Spectroscopy. A unimolar ratio of copper chromate and copper arsenate was used as being representative of chromated copper arsenate. The level of contamination was selected so that the As component was about 30 mg/L. After the system was set up the As component was determined to be 28.3 mg/L. The Cu and Cr were approximately 25 mg/L and 15.5 mg/L, respectively.
# (§2) Ferrous cysteinate and sorbitol tricysteinate were both used in this system.
# [2] = Example D: two-flask liquid/soil system with chromated copper arsenate, chromium
# Protocol: as §1, §2
# [3] = Example D: two-flask liquid/soil system with chromated copper arsenate, arsenic
# Protocol: as §1, §2
# [4] = Example E: Aquifer Simulation Vessel (ASV), chromated copper arsenate, chromium; conditions: for Chromium concentration in aqueous phase / Cr concentration: initial 15
# Protocol: (§3) A tube 6 foot long and 6 inches in diameter was packed with soil. These tubes simulate the flow in an aquifer below ground and are referred to as Aquifer Simulation Vessels (ASV). The ASV has sample ports along the bottom at every 6-inch interval to allow sampling as water flows through the tube. Contaminated water is allowed to flow through the tube. As the water flows through the tube, the water within the space pockets of the soil is tested and when the soil with the tube is fully contaminated the flow was stopped. The soil pockets (pores) were full of contaminants from the water. At that point either ferrous cysteinate or sorbitol hexacysteinate was injected just ahead of the first port with no flow in the system.
# (§4) A separate tube was used for each of the two materials tested.
# (§5) Initially the soil pockets (pores) were filled with this solution as described. Either ferrous cysteinate or sorbitol hexacysteinate was injected into the soil containing tube. The concentration of contaminants at each sample port was measured over a 30 day period. The system was then flushed with fresh water to determine if the removed metals are “redistributed” or “redissolved” in the water (i.e. so called “rebound”). This measure determined the ability of the compounds to permanently remove the contaminants.
# [5] = Example C: reduction of As in arsenate solution in a flask, atomic absorption
# Protocol: 10.02 grams of ferrous cysteinate synthesized as in 1.4 were added to a 250 ml. flask which contained 150 ml of 32 ppm of As initially added as arsenic trioxide. The 32-ppm solution of As was prepared by using 0.08 grams of arsenic trioxide to which 3.0 grams of concentrated hydrochloric acid was added. This prepared the soluble arsenate. The solution was heated and diluted to one liter with distilled water. The As concentration was measured over time using atomic absorption.
# [6] = Example E: Aquifer Simulation Vessel (ASV), chromated copper arsenate, copper; conditions: for Copper concentration in aqueous phase: initial 4.2
# Protocol: as §3, §4, §5
# [7] = Example E: Aquifer Simulation Vessel (ASV), chromated copper arsenate, arsenic; conditions: for Arsenic concentration in aqueous phase: initial 25.7
# Protocol: as §3, §4, §5
substance,measurement,setting,value
sorbitol tricysteinate,remediation of copper in combined solution,[1],remediated
same,remediation of chromium in combined solution,[2],remediated
same,remediation of arsenic in combined solution,[3],remediated
ferrous cysteinate [FeC],remediation of copper in combined solution,[1],remediated
same,remediation of Cr in ASV,[4],effective remediation
same,Chromium concentration in aqueous phase,"[4]; Port 1, Day 8",5.8 mg/L
same,Chromium concentration in aqueous phase,"[4]; Port 1, Day 13",3.4 mg/L
same,Chromium concentration in aqueous phase,"[4]; Port 1, Day 16",1.4 mg/L
same,Chromium concentration in aqueous phase,"[4]; Port 1, Day 20",0.7 mg/L
same,Chromium concentration in aqueous phase,"[4]; Port 1, Day 22",1.1 mg/L
same,Chromium concentration in aqueous phase,"[4]; Port 1, Day 27",1.0 mg/L
same,Chromium concentration in aqueous phase,"[4]; Port 5, Day 8",4.8 mg/L
same,Chromium concentration in aqueous phase,"[4]; Port 5, Day 13",1.3 mg/L
same,Chromium concentration in aqueous phase,"[4]; Port 5, Day 16",0.9 mg/L
same,Chromium concentration in aqueous phase,"[4]; Port 5, Day 20",0.6 mg/L
same,Chromium concentration in aqueous phase,"[4]; Port 5, Day 22",1.0 mg/L
same,Chromium concentration in aqueous phase,"[4]; Port 5, Day 27",0.9 mg/L
same,Chromium concentration in aqueous phase,"[4]; Port 10, Day 8",5.2 mg/L
same,Chromium concentration in aqueous phase,"[4]; Port 10, Day 13",0.8 mg/L
same,Chromium concentration in aqueous phase,"[4]; Port 10, Day 16",0.6 mg/L
same,Chromium concentration in aqueous phase,"[4]; Port 10, Day 20",0.5 mg/L
same,Chromium concentration in aqueous phase,"[4]; Port 10, Day 22",0.9 mg/L
same,Chromium concentration in aqueous phase,"[4]; Port 10, Day 27",0.7 mg/L
same,Cr concentration,"[4]; port 1, day 30",0.7 mg/L
same,Cr concentration,"[4]; port 5, day 30",0.4 mg/L
same,Cr concentration,"[4]; port 10, day 30",0.4 mg/L
same,time in which the concentration of As was reduced by half,[5]; 10.02 grams in 150 ml of 32 ppm As,less than 45 hours
same,concentration of As after treatment,"[5]; from 32 ppm, in less than 45 hours",less than 15 ppm
same,remediation of Cu in ASV,[6],effective remediation
same,Copper concentration in aqueous phase,"[6]; Port 1, Day 5",0.3 mg/L
same,Copper concentration in aqueous phase,"[6]; Port 1, Day 8",0.2 mg/L
same,Copper concentration in aqueous phase,"[6]; Port 1, Day 13",0.1 mg/L
same,Copper concentration in aqueous phase,"[6]; Port 1, Day 16",0.1 mg/L
same,Copper concentration in aqueous phase,"[6]; Port 1, Day 20",0.0 mg/L
same,Copper concentration in aqueous phase,"[6]; Port 1, Day 22",0.1 mg/L
same,Copper concentration in aqueous phase,"[6]; Port 1, Day 27",0.0 mg/L
same,Copper concentration in aqueous phase,"[6]; Port 5, Day 5",0.3 mg/L
same,Copper concentration in aqueous phase,"[6]; Port 5, Day 8",0.2 mg/L
same,Copper concentration in aqueous phase,"[6]; Port 5, Day 13",0.1 mg/L
same,Copper concentration in aqueous phase,"[6]; Port 5, Day 16",0.0 mg/L
same,Copper concentration in aqueous phase,"[6]; Port 5, Day 20",0.0 mg/L
same,Copper concentration in aqueous phase,"[6]; Port 5, Day 22",0.0 mg/L
same,Copper concentration in aqueous phase,"[6]; Port 5, Day 27",0.0 mg/L
same,Copper concentration in aqueous phase,"[6]; Port 10, Day 5",0.1 mg/L
same,Copper concentration in aqueous phase,"[6]; Port 10, Day 8",0.1 mg/L
same,Copper concentration in aqueous phase,"[6]; Port 10, Day 13",0.0 mg/L
same,Copper concentration in aqueous phase,"[6]; Port 10, Day 16",0.0 mg/L
same,Copper concentration in aqueous phase,"[6]; Port 10, Day 20",0.0 mg/L
same,Copper concentration in aqueous phase,"[6]; Port 10, Day 22",0.0 mg/L
same,Copper concentration in aqueous phase,"[6]; Port 10, Day 27",0.0 mg/L
same,remediation of chromium in combined solution,[2],remediated
same,remediation of As in ASV,[7],effective remediation
same,Arsenic concentration in aqueous phase,"[7]; Port 1, Day 5",25.8 mg/L
same,Arsenic concentration in aqueous phase,"[7]; Port 1, Day 8",10.9 mg/L
same,Arsenic concentration in aqueous phase,"[7]; Port 1, Day 13",6.8 mg/L
same,Arsenic concentration in aqueous phase,"[7]; Port 1, Day 16",3.6 mg/L
same,Arsenic concentration in aqueous phase,"[7]; Port 1, Day 20",3.3 mg/L
same,Arsenic concentration in aqueous phase,"[7]; Port 1, Day 22",1.1 mg/L
same,Arsenic concentration in aqueous phase,"[7]; Port 1, Day 27",0.6 mg/L
same,Arsenic concentration in aqueous phase,"[7]; Port 5, Day 5",23.1 mg/L
same,Arsenic concentration in aqueous phase,"[7]; Port 5, Day 8",9.8 mg/L
same,Arsenic concentration in aqueous phase,"[7]; Port 5, Day 13",6.8 mg/L
same,Arsenic concentration in aqueous phase,"[7]; Port 5, Day 16",3.5 mg/L
same,Arsenic concentration in aqueous phase,"[7]; Port 5, Day 20",3.0 mg/L
same,Arsenic concentration in aqueous phase,"[7]; Port 5, Day 22",0.9 mg/L
same,Arsenic concentration in aqueous phase,"[7]; Port 5, Day 27",0.5 mg/L
same,Arsenic concentration in aqueous phase,"[7]; Port 10, Day 5",23.9 mg/L
same,Arsenic concentration in aqueous phase,"[7]; Port 10, Day 8",7.7 mg/L
same,Arsenic concentration in aqueous phase,"[7]; Port 10, Day 13",5.4 mg/L
same,Arsenic concentration in aqueous phase,"[7]; Port 10, Day 16",2.8 mg/L
same,Arsenic concentration in aqueous phase,"[7]; Port 10, Day 20",2.9 mg/L
same,Arsenic concentration in aqueous phase,"[7]; Port 10, Day 22",0.8 mg/L
same,Arsenic concentration in aqueous phase,"[7]; Port 10, Day 27",0.5 mg/L
same,remediation of arsenic in combined solution,[3],remediated

# — patent US7375246B2, “Sulfhydral containing compounds and methods of using the same” (Regenesis Bioremediation Products Inc., priority 2003, dated 2008)
